PubChem BioAssay (NCI)
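Five concentrations, 48 hours, 96-well plates. GI50 marks 50% less growth. TGI denotes the concentration required for complete inhibition of growth.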

What was measured:
Assay in all cases: NCI tumour cell line growth inhibition, 48 h
LXFL 529 NSCLC = test system: LXFL 529 NSCLC
OVCAR-5 ovarian = test system: OVCAR-5 ovarian
KM20L2 colon = test system: KM20L2 colon
M19-MEL melanoma = test system: M19-MEL melanoma
SNB-78 CNS = test system: SNB-78 CNS
COLO 205 colon = test system: COLO 205 colon
MCF7 breast = test system: MCF7 breast
MDA-MB-435 = test system: MDA-MB-435
DMS 273 small cell lung = test system: DMS 273 small cell lung

O=C(N/C(=C/c1cccc([N+](=O)[O-])c1)c1nc2ccc(Cl)cc2[nH]1)c1ccccc1
TGI (LXFL 529 NSCLC): > 100 µM | TGI (OVCAR-5 ovarian): 78.6 µM | TGI (KM20L2 colon): 45.4 µM | TGI (M19-MEL melanoma): > 100 µM | TGI (SNB-78 CNS): > 100 µM | TGI (COLO 205 colon): > 100 µM

Cc1nc(Sc2nc3ccc([N+](=O)[O-])cc3s2)sc1C
GI50 (MCF7 breast): 0.705 µM | TGI (MCF7 breast): 10.1 µM | GI50 (OVCAR-5 ovarian): 2.84 µM | TGI (OVCAR-5 ovarian): 11.8 µM | GI50 (MDA-MB-435): 1.78 µM | TGI (MDA-MB-435): 11.1 µM | GI50 (COLO 205 colon): 1.93 µM | TGI (COLO 205 colon): 6.07 µM

CC12OC(C(=O)C13CCC3)C1C(=O)c3ccc4c(ccc5ccccc54)c3C(=O)C12 (configuration not stated)
GI50 (MCF7 breast): 5.1 µM | TGI (MCF7 breast): 30.7 µM | GI50 (OVCAR-5 ovarian): 17.8 µM | TGI (OVCAR-5 ovarian): 33.9 µM | GI50 (MDA-MB-435): 12.8 µM | TGI (MDA-MB-435): 30.3 µM | GI50 (COLO 205 colon): 11.2 µM | TGI (COLO 205 colon): 33.1 µM

CCOC(=O)C#Cc1c(C(=O)OCC)nnn1[C@@H]1O[C@H](CO)[C@H]2OC3(CCCCC3)O[C@H]21
GI50 (MCF7 breast): 2.11 µM | TGI (MCF7 breast): 6.56 µM | GI50 (OVCAR-5 ovarian): 8.09 µM | TGI (OVCAR-5 ovarian): 22.6 µM | GI50 (MDA-MB-435): 4.49 µM | TGI (MDA-MB-435): 16 µM | GI50 (COLO 205 colon): 1.98 µM | TGI (COLO 205 colon): 4.06 µM

O=C(CN(/C=C/C(=O)C(F)(F)F)c1ccccc1)c1ccc(Cl)cc1
GI50 (MCF7 breast): 24.5 µM | TGI (MCF7 breast): 67.1 µM | GI50 (OVCAR-5 ovarian): 22.2 µM | TGI (OVCAR-5 ovarian): 46.4 µM | GI50 (MDA-MB-435): 19.5 µM | TGI (MDA-MB-435): 42.6 µM | GI50 (COLO 205 colon): 22.1 µM | TGI (COLO 205 colon): 49.1 µM

CCn1c(=N)sc2nc3ccccc3n2c1=O
TGI (MCF7 breast): > 100 µM | TGI (OVCAR-5 ovarian): > 100 µM | TGI (MDA-MB-435): > 100 µM | TGI (COLO 205 colon): > 100 µM

CC(=O)O[C@H](C[C@H](C(C)C)N(C)C(=O)[C@@H](NC(=O)[C@H]1CCCCN1C)C(C)C)c1cccc(C(=O)N[C@@H](Cc2ccccc2)C[C@H](C)C(=O)O)n1
GI50 (MCF7 breast): 0.00992 µM | TGI (MCF7 breast): > 25 µM | GI50 (OVCAR-5 ovarian): 0.248 µM | TGI (OVCAR-5 ovarian): > 25 µM | GI50 (COLO 205 colon): 0.0279 µM | TGI (COLO 205 colon): 0.329 µM

COc1cc(CN(c2ccc(C)cc2)C2OC(=O)c3ccccc32)cc(OC)c1OC (configuration not stated)
GI50 (MCF7 breast): 0.339 µM | TGI (MCF7 breast): > 100 µM | GI50 (OVCAR-5 ovarian): 1.58 µM | TGI (OVCAR-5 ovarian): > 100 µM | GI50 (COLO 205 colon): 0.351 µM | TGI (COLO 205 colon): 1.3 µM

Nc1nc2c(ccc3ccccc32)s1
GI50 (MCF7 breast): 78.7 µM | TGI (MCF7 breast): > 100 µM | GI50 (OVCAR-5 ovarian): > 100 µM | TGI (OVCAR-5 ovarian): > 100 µM | GI50 (MDA-MB-435): 57.1 µM | TGI (MDA-MB-435): > 100 µM | GI50 (COLO 205 colon): > 100 µM | TGI (COLO 205 colon): > 100 µM

COc1cccc(NC(=O)c2sc3nc4c(cc3c2N)C(O)CCC4)c1 (configuration not stated)
GI50 (MCF7 breast): 0.0523 µM | TGI (MCF7 breast): > 100 µM | GI50 (OVCAR-5 ovarian): 0.521 µM | TGI (OVCAR-5 ovarian): > 100 µM | GI50 (COLO 205 colon): 0.226 µM | TGI (COLO 205 colon): 0.87 µM

Nc1ccc(-c2ccc3ncc4ccc(=O)n(-c5cccc(C(F)(F)F)c5)c4c3c2)cn1
GI50 (MCF7 breast): < 0.01 µM | TGI (MCF7 breast): 12.8 µM | GI50 (OVCAR-5 ovarian): < 0.0145 µM | TGI (OVCAR-5 ovarian): 31.5 µM | GI50 (MDA-MB-435): < 0.01 µM | TGI (MDA-MB-435): 3.26 µM | GI50 (COLO 205 colon): 0.0245 µM | TGI (COLO 205 colon): 0.683 µM

CCOC(=O)C1=C(C(=O)OCC)C2(c3ccccc3)N(O1)c1ccccc1C2(C)C (configuration not stated)
TGI (LXFL 529 NSCLC): > 100 µM | TGI (OVCAR-5 ovarian): > 100 µM | TGI (KM20L2 colon): > 100 µM | TGI (M19-MEL melanoma): > 100 µM | TGI (SNB-78 CNS): > 100 µM | TGI (COLO 205 colon): > 100 µM

C/C(O)=C(\N=O)C(=O)NCc1ccccc1
TGI (LXFL 529 NSCLC): > 100 µM | TGI (OVCAR-5 ovarian): > 100 µM | TGI (KM20L2 colon): > 100 µM | TGI (DMS 273 small cell lung): > 100 µM | TGI (SNB-78 CNS): > 100 µM | TGI (COLO 205 colon): > 100 µM

C[C@H](NC(=O)c1c(C(F)F)nn(C)c1Oc1cccc(C(F)(F)F)c1)c1ccc(C(=O)O)cc1
GI50 (MCF7 breast): > 100 µM | TGI (MCF7 breast): > 100 µM | GI50 (OVCAR-5 ovarian): > 100 µM | TGI (OVCAR-5 ovarian): > 100 µM | GI50 (MDA-MB-435): > 100 µM | TGI (MDA-MB-435): > 100 µM | GI50 (COLO 205 colon): > 100 µM | TGI (COLO 205 colon): > 100 µM

CC1=C(C#N)C(/C=C(\Cl)c2ccc(F)cc2)C(C#N)=C(C)N1
GI50 (MCF7 breast): > 100 µM | TGI (MCF7 breast): > 100 µM | GI50 (OVCAR-5 ovarian): > 100 µM | TGI (OVCAR-5 ovarian): > 100 µM | GI50 (MDA-MB-435): > 100 µM | TGI (MDA-MB-435): > 100 µM | GI50 (COLO 205 colon): > 100 µM | TGI (COLO 205 colon): > 100 µM

COc1ccc(-c2n[nH]nc2-c2cc(OC)c3c(c2)OCO3)cc1
GI50 (MCF7 breast): < 0.01 µM | TGI (MCF7 breast): > 82.3 µM | GI50 (OVCAR-5 ovarian): 0.0665 µM | TGI (OVCAR-5 ovarian): > 100 µM | GI50 (MDA-MB-435): < 0.01 µM | GI50 (COLO 205 colon): 0.206 µM | TGI (COLO 205 colon): 1.17 µM

CC[C@@H](O)C[C@H]1CCC[C@@]2(C[C@@H]3OC(=O)/C=C/[C@@](C)(O)[C@@H](O)[C@H](C)[C@@H](O)[C@H](OC4CCC(N(C)C)C(C)O4)[C@@H](O)[C@](C)(O)CCCCC/C=C/[C@@H]4CC(C)(C)O[C@@]4(O)C[C@H](O2)[C@H]3C)O1 (some centres not stated)
TGI (MCF7 breast): 15.6 µM | TGI (OVCAR-5 ovarian): 28.1 µM | TGI (MDA-MB-435): 22.2 µM | TGI (COLO 205 colon): 14.5 µM

CCN(CC)c1ccc(/C=N/NC(=O)CSc2nc3ccccc3c(=O)n2Cc2ccc(S(N)(=O)=O)cc2)c(O)c1
GI50 (MCF7 breast): 0.457 µM | TGI (MCF7 breast): > 100 µM | GI50 (OVCAR-5 ovarian): 2.09 µM | TGI (OVCAR-5 ovarian): > 100 µM | GI50 (MDA-MB-435): 2.07 µM | TGI (MDA-MB-435): > 100 µM | GI50 (COLO 205 colon): 1.51 µM | TGI (COLO 205 colon): > 100 µM

C=C1C(=O)O[C@H]2[C@H]1CC/C(COC(=O)NCCc1cccc(OC)c1)=C\CC[C@@]1(C)O[C@@H]21
GI50 (MCF7 breast): 0.494 µM | TGI (MCF7 breast): 2.1 µM | GI50 (OVCAR-5 ovarian): 2.25 µM | TGI (OVCAR-5 ovarian): 6.05 µM | GI50 (MDA-MB-435): 1.58 µM | TGI (MDA-MB-435): 3.7 µM | GI50 (COLO 205 colon): 1.55 µM | TGI (COLO 205 colon): 3.28 µM

Cc1ccc(O)c(NC2=C(Cl)C(=O)N(Cc3ccccc3)C2=O)c1
GI50 (MCF7 breast): 16.2 µM | TGI (MCF7 breast): 48.8 µM | GI50 (OVCAR-5 ovarian): 33.3 µM | TGI (OVCAR-5 ovarian): 89.1 µM | GI50 (MDA-MB-435): 28.4 µM | TGI (MDA-MB-435): 76.1 µM | GI50 (COLO 205 colon): 28.4 µM | TGI (COLO 205 colon): > 100 µM

COc1ccc2c(c1)O/C(=C\c1cccc(OCC(=O)Nc3nc(C)c(C)s3)c1)C2=O
GI50 (MCF7 breast): 3.17 µM | TGI (MCF7 breast): 50.1 µM | GI50 (OVCAR-5 ovarian): 3.79 µM | TGI (OVCAR-5 ovarian): > 26.3 µM | GI50 (MDA-MB-435): 7.29 µM | TGI (MDA-MB-435): > 100 µM | GI50 (COLO 205 colon): 22.3 µM | TGI (COLO 205 colon): > 100 µM

COc1ccc2nc3cccc([N+](=O)[O-])c3c(NCCNCCN(C)C)c2c1
GI50 (MCF7 breast): 0.0192 µM | TGI (MCF7 breast): 0.221 µM | GI50 (OVCAR-5 ovarian): 0.0375 µM | TGI (OVCAR-5 ovarian): 0.467 µM | GI50 (MDA-MB-435): 0.111 µM | TGI (MDA-MB-435): 0.248 µM | GI50 (COLO 205 colon): 0.0277 µM | TGI (COLO 205 colon): 0.0949 µM

CCc1nn2ncccc2c1-c1ccnc(NC2CC2)n1
GI50 (MCF7 breast): > 25 µM | TGI (MCF7 breast): > 25 µM | GI50 (OVCAR-5 ovarian): > 25 µM | TGI (OVCAR-5 ovarian): > 25 µM | GI50 (MDA-MB-435): > 25 µM | TGI (MDA-MB-435): > 25 µM | GI50 (COLO 205 colon): > 25 µM | TGI (COLO 205 colon): > 25 µM

Cc1cn2c(/C=N/N=C(N)N)c(-c3ccncc3)nc2s1
GI50 (OVCAR-5 ovarian): 17.8 µM | TGI (OVCAR-5 ovarian): 31.7 µM | GI50 (MDA-MB-435): 17.2 µM | TGI (MDA-MB-435): 33.8 µM | GI50 (COLO 205 colon): 17.5 µM | TGI (COLO 205 colon): 33.3 µM

COc1cc2nc(-c3cccc4cccnc34)nc(NC3CCN(Cc4ccccc4)CC3)c2cc1OC
GI50 (OVCAR-5 ovarian): 1.3 µM | TGI (OVCAR-5 ovarian): 2.73 µM | GI50 (MDA-MB-435): 1.56 µM | TGI (MDA-MB-435): 3.08 µM

O=C1Nc2ccccc2/C1=C/c1cn(CC(O)Cn2cc(/C=C3\C(=O)Nc4ccccc43)c3ccccc32)c2ccccc12 (configuration not stated)
GI50 (OVCAR-5 ovarian): 1.74 µM | TGI (OVCAR-5 ovarian): 4.53 µM | GI50 (MDA-MB-435): 1.81 µM | TGI (MDA-MB-435): 3.46 µM
